{"source": "paper PMC4340357", "about": "(Journal of Chemical Information and Modeling, 2015)", "origin": "cited, not measured here", "target": "C. perfringens neuraminidase", "conditions": "read-out: IC50 against C. perfringens neuraminidase", "data": [{"smiles": "CC(C)=CCc1c(O)c(CC=C(C)C)c2oc3c(O)ccc(O)c3c(=O)c2c1O", "note": "[Gartanin]", "values": [{"measurement": "IC50", "value": "2900 ± 300", "unit": "nM"}]}]}
